Source: PubChem BioAssay AID248 (DTP/NCI, 2004)
Where “and” joins values, the source holds several entries; their conditions need not be identical. Equal values may be shown once. Toxic doses and inconclusive results are not listed. No stated cut-off is given here; in the data, active means T/C of 150% or more; inactive means T/C below 125%.

System: L1210 leukemia ip in BDF1 mice, survival T/C
Assay: NCI In Vivo Anticancer Drug Screen. Data for tumor model L1210 Leukemia (intraperitoneal) in B6D2F1 (BDF1) mice
Conditions: endpoint: mean survival time, higher = longer survival
Summary of the method: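 Transplanted-tumor mice were given test agent; controls received vehicle only. Survival readings from the two groups were divided (treated over control).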

[1] = dose: 100.0 mg/kg/injection, schedule: Q01DX009 (ip), vehicle: Klucel (hydroxypropylcellulose) (HPC)
[2] = dose: 100.0 mg/kg/injection, schedule: Q04DX003 (ip), vehicle: Klucel (hydroxypropylcellulose) (HPC)
[3] = dose: 200.0 mg/kg/injection, schedule: Q01DX009 (ip), vehicle: Klucel (hydroxypropylcellulose) (HPC)
[4] = dose: 200.0 mg/kg/injection, schedule: Q04DX003 (ip), vehicle: Klucel (hydroxypropylcellulose) (HPC)
[5] = dose: 100.0 mg/kg/injection, schedule: Q04DX003 (ip), vehicle: saline
[6] = dose: 200.0 mg/kg/injection, schedule: Q04DX003 (ip), vehicle: saline
[7] = dose: 50.0 mg/kg/injection, schedule: Q01DX001 (ip), vehicle: carboxymethylcellulose (CMC)
[8] = dose: 100.0 mg/kg/injection, schedule: Q01DX001 (ip), vehicle: carboxymethylcellulose (CMC)
[9] = dose: 200.0 mg/kg/injection, schedule: Q01DX001 (ip), vehicle: carboxymethylcellulose (CMC)
[10] = dose: 100.0 mg/kg/injection, schedule: Q01DX009 (ip), vehicle: saline with Tween-80
[11] = dose: 100.0 mg/kg/injection, schedule: Q04DX003 (ip), vehicle: saline with Tween-80
[12] = dose: 50.0 mg/kg/injection, schedule: Q01DX001 (ip), vehicle: saline
[13] = dose: 100.0 mg/kg/injection, schedule: Q01DX001 (ip), vehicle: saline
[14] = dose: 200.0 mg/kg/injection, schedule: Q01DX001 (ip), vehicle: saline
[15] = dose: 400.0 mg/kg/injection, schedule: Q01DX001 (ip), vehicle: saline
[16] = dose: 200.0 mg/kg/injection, schedule: Q04DX003 (ip), vehicle: saline with Tween-80
[17] = dose: 400.0 mg/kg/injection, schedule: Q04DX003 (ip), vehicle: saline with Tween-80
[18] = dose: 100.0 mg/kg/injection, schedule: Q01DX001 (ip), vehicle: Klucel (hydroxypropylcellulose) (HPC)
[19] = dose: 200.0 mg/kg/injection, schedule: Q01DX001 (ip), vehicle: Klucel (hydroxypropylcellulose) (HPC)
[20] = dose: 400.0 mg/kg/injection, schedule: Q01DX001 (ip), vehicle: Klucel (hydroxypropylcellulose) (HPC)
[21] = dose: 400.0 mg/kg/injection, schedule: Q04DX003 (ip), vehicle: Klucel (hydroxypropylcellulose) (HPC)
[22] = dose: 100.0 mg/kg/injection, schedule: Q01DX009 (ip), vehicle: saline

Measured: T/C

c1coc(CCc2nc3ccccc3[nH]2)c1
inactive: dose: 50.0 mg/kg/injection, schedule: Q01DX009 (ip), vehicle: Klucel (hydroxypropylcellulose) (HPC) 121 % of control | [1] 116 % of control | [2] 96 % of control | [3] 100 % of control | [4] 100 % of control

CCCCCC1(C)OCC(CCl)O1 (configuration not stated)
inactive: dose: 222.0 mg/kg/injection, schedule: Q01DX Z (ip), vehicle: saline 107 % of control | dose: 333.0 mg/kg/injection, schedule: Q01DX Z (ip), vehicle: saline 97 % of control | dose: 500.0 mg/kg/injection, schedule: Q01DX Z (ip), vehicle: saline 89 % of control

CC12CCCCC1CCC1C2CCC2(C)C(C(=O)O)CCC12 (configuration not stated)
inactive: dose: 100.0 mg/kg/injection, schedule: Q04DX002 (ip), vehicle: gum acacia 89 % of control | dose: 200.0 mg/kg/injection, schedule: Q04DX002 (ip), vehicle: gum acacia 99 % of control | dose: 400.0 mg/kg/injection, schedule: Q04DX002 (ip), vehicle: gum acacia 92 % of control

OC1C=NC=N1 (configuration not stated)
inactive: [5] 92 % of control | [6] 109 % of control | dose: 400.0 mg/kg/injection, schedule: Q04DX003 (ip), vehicle: saline 95 % of control

Clc1ncnc2[nH]cc(Br)c12
inactive: [7] 98 % of control | [8] 104 % of control | [9] 110 % of control | dose: 400.0 mg/kg/injection, schedule: Q01DX001 (ip), vehicle: carboxymethylcellulose (CMC) 98 % of control

C(#CCN1CCCC1)CCCN1CCCC1
inactive: dose: 25.0 mg/kg/injection, schedule: Q01DX009 (ip), vehicle: saline with Tween-80 98 % of control | dose: 25.0 mg/kg/injection, schedule: Q04DX003 (ip), vehicle: saline with Tween-80 97 % of control | dose: 50.0 mg/kg/injection, schedule: Q01DX009 (ip), vehicle: saline with Tween-80 102 % of control | dose: 50.0 mg/kg/injection, schedule: Q04DX003 (ip), vehicle: saline with Tween-80 97 % of control | [10] 95 % of control | [11] 93 % of control and 98 % of control

COc1cccc(C2N(Cc3ccc(OC)cc3OC)CCCN2Cc2ccc(OC)cc2OC)c1
inactive: [12] 89 % of control | [13] 96 % of control | [14] 91 % of control | [15] 96 % of control

O=C1OC(c2ccc(Cl)cc2)Sc2ccccc21 (configuration not stated)
inactive: [11] 103 % of control | [16] 94 % of control | [17] 100 % of control

NC(=S)NNC(=O)Nc1ccc(F)c(Cl)c1
inactive: dose: 12.5 mg/kg/injection, schedule: Q01DX009 (ip), vehicle: other 94 % of control | dose: 25.0 mg/kg/injection, schedule: Q01DX009 (ip), vehicle: other 93 % of control | dose: 50.0 mg/kg/injection, schedule: Q01DX009 (ip), vehicle: other 96 % of control

[Cl][Pd][Cl].[NH-]CCN1CC1
inactive: dose: 25.0 mg/kg/injection, schedule: Q04DX002 (ip), vehicle: saline + alcohol 113 % of control | dose: 50.0 mg/kg/injection, schedule: Q04DX002 (ip), vehicle: saline + alcohol 102 % of control | dose: 100.0 mg/kg/injection, schedule: Q04DX002 (ip), vehicle: saline + alcohol 117 % of control | dose: 100.0 mg/kg/injection, schedule: Q04DX002 (ip), vehicle: saline 116 % of control

C=C(Br)CNC(=O)NN1CCOCC1
inactive: [18] 115 % of control | [2] 95 % of control | [19] 111 % of control | [4] 98 % of control | [20] 102 % of control | [21] 97 % of control

O=C(Cc1ccc([N+](=O)[O-])cc1)c1ccccc1
inactive: [18] 95 % of control | [1] 102 % of control | [22] 108 % of control | [2] 97 % of control | [19] 88 % of control | [3] 103 % of control | dose: 200.0 mg/kg/injection, schedule: Q01DX009 (ip), vehicle: saline 102 % of control | [4] 97 % of control | [20] 90 % of control | dose: 400.0 mg/kg/injection, schedule: Q01DX009 (ip), vehicle: Klucel (hydroxypropylcellulose) (HPC) 94 % of control | dose: 400.0 mg/kg/injection, schedule: Q01DX009 (ip), vehicle: saline 97 % of control | [21] 101 % of control

Cc1cc(C)c(NS(=O)(=O)c2ccccc2)c(C)n1
inactive: [10] 98 % of control and 100 % of control | [11] 96 % of control | dose: 200.0 mg/kg/injection, schedule: Q01DX009 (ip), vehicle: saline with Tween-80 91 % of control and 92 % of control | [16] 100 % of control | dose: 400.0 mg/kg/injection, schedule: Q01DX009 (ip), vehicle: saline with Tween-80 96 % of control and 97 % of control | [17] 96 % of control

Cc1cccc(C(=O)N(C)C(c2ccco2)P(=O)(c2ccccc2)c2ccccc2)c1 (configuration not stated)
inactive: [7] 103 % of control | dose: 50.0 mg/kg/injection, schedule: Q01DX009 (ip), vehicle: carboxymethylcellulose (CMC) 94 % of control and 92 % of control | [8] 104 % of control | dose: 100.0 mg/kg/injection, schedule: Q01DX009 (ip), vehicle: carboxymethylcellulose (CMC) 94 % of control and 95 % of control | [9] 95 % of control | dose: 200.0 mg/kg/injection, schedule: Q01DX009 (ip), vehicle: carboxymethylcellulose (CMC) 89 % of control

[Cl][Ni][Cl].[NH-]CCN1CC1.[NH-]CCN1CC1
inactive: dose: 1.75 mg/kg/injection, schedule: Q01DX009 (ip), vehicle: saline 101 % of control | dose: 3.5 mg/kg/injection, schedule: Q01DX009 (ip), vehicle: saline 97 % of control | dose: 7.0 mg/kg/injection, schedule: Q01DX009 (ip), vehicle: saline 103 % of control | dose: 14.0 mg/kg/injection, schedule: Q01DX009 (ip), vehicle: saline 98 % of control

CC(=O)C(Cl)C(C)=O.CC(=O)C(Cl)C(C)=O.CC(=O)CC(C)=O.[Rh]
inactive: dose: 50.0 mg/kg/injection, schedule: Q01DX001 (ip), vehicle: other 102 % of control | dose: 100.0 mg/kg/injection, schedule: Q01DX001 (ip), vehicle: other 98 % of control | dose: 200.0 mg/kg/injection, schedule: Q01DX001 (ip), vehicle: other 96 % of control | dose: 400.0 mg/kg/injection, schedule: Q01DX001 (ip), vehicle: other 98 % of control

Cn1cnc2cc(N=Cc3ccc(N(CCCl)CCCl)cc3F)ccc21
inactive: dose: 100.0 mg/kg/injection, schedule: Q04DX002 (ip), vehicle: Klucel (hydroxypropylcellulose) (HPC) 104 % of control | dose: 200.0 mg/kg/injection, schedule: Q04DX002 (ip), vehicle: Klucel (hydroxypropylcellulose) (HPC) 101 % of control | dose: 400.0 mg/kg/injection, schedule: Q04DX002 (ip), vehicle: Klucel (hydroxypropylcellulose) (HPC) 97 % of control

CC1COCCN1 (configuration not stated)
inactive: [12] 91 % of control | [13] 97 % of control | [14] 100 % of control

Nc1c[nH]c(=O)[nH]c1=O
inactive: [13] 89 % of control | [14] 95 % of control | [15] 97 % of control

CCN(CC)C(=O)C1C=C2c3cccc4c3c(c(Br)n4C)CC2N(C)C1 (configuration not stated)
inactive: dose: 12.5 mg/kg/injection, schedule: Q01DX009 (ip), vehicle: saline 102 % of control | dose: 25.0 mg/kg/injection, schedule: Q01DX009 (ip), vehicle: saline 120 % of control | dose: 25.0 mg/kg/injection, schedule: Q04DX003 (ip), vehicle: saline 103 % of control | dose: 50.0 mg/kg/injection, schedule: Q01DX009 (ip), vehicle: saline 112 % of control | dose: 50.0 mg/kg/injection, schedule: Q04DX003 (ip), vehicle: saline 98 % of control | [22] 107 % of control | [5] 104 % of control | [6] 106 % of control

COC(=O)c1cc(C)cc([N+](=O)[O-])c1C
inactive: [12] 91 % of control | [13] 111 % of control | [14] 100 % of control | [15] 102 % of control
